From publication PMC8197871, “Biochemical and Initial Structural Characterization of the Monocot Chimeric Jacalin OsJAC1” (International Journal of Molecular Sciences, 2021)
Values joined by “and” are separate entries in the source; they are usually repeats but may differ in a detail not shown here. Identical values can stand only once. Each block holds one molecule with its values, some of them ahead of it.

Key:
[1] = target: T1, OsJAC1 (Oryza sativa, UniProt Q306J3); test: nano differential scanning fluorimetry; type: binding; conditions: 50 mM sugar, 4 mM DTT, 50 mM KPi pH 7.4; TM1 = JRL domain transition
T1 construct: gene JAC1; full length, DIR + JRL domains; N-terminal His6 tag and thrombin site kept; E. coli BL21(DE3), pColdIV
T1 sequence (Q306J3 1-306): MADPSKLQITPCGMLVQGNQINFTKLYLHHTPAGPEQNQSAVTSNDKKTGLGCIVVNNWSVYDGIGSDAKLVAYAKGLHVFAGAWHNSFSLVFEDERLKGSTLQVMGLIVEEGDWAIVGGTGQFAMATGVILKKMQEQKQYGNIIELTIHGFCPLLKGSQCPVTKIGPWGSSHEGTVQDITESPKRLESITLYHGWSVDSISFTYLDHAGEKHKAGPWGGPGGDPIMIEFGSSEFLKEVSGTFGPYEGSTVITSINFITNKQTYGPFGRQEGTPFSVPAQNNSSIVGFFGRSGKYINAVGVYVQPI

[2] = target: T2, JRL domain of OsJAC1 (Oryza sativa, UniProt Q306J3); test: nano differential scanning fluorimetry; type: binding; conditions: 50 mM sugar, 4 mM DTT, 50 mM KPi pH 7.4; 1:1 mixture with DIR domain
T2 construct: gene JAC1; isolated jacalin-related lectin domain QCPVTKIGPWGSSHEG...INAVGVYVQPI; N-terminal His6 tag and thrombin site kept; E. coli BL21(DE3), pET15b(+); thermal shifts measured in 1:1 mixture with the isolated DIR domain
T2 sequence (Q306J3 160-306): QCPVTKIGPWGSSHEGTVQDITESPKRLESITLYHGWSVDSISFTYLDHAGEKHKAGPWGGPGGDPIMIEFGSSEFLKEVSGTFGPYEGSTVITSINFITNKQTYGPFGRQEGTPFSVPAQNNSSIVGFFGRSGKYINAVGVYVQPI

[3] = target: DIR (dirigent) domain protein of OsJAC1, His6-tagged (Oryza sativa); test: SEC; HiLoad 16/600 Superdex 200 pg; 50 mM KPi pH 7.4, 300 mM NaCl; 1 mL of 10 mg/mL protein injected, 1 mL/min; apparent masses from calibration proteins
[4] = target: T3, DIR domain of OsJAC1 (Oryza sativa, UniProt Q306J3, T49I); test: nano differential scanning fluorimetry; type: binding; conditions: 50 mM sugar, 4 mM DTT, 50 mM KPi pH 7.4
T3 construct: gene JAC1; isolated dirigent domain SKLQITPCGM...FCPLLKGS; Thr to Ile point mutation (NDKKIGLG); N-terminal His6 tag and thrombin site kept; E. coli BL21(DE3), pET15b(+); dimer/tetramer by SEC
T3 sequence (Q306J3 5-159 T49I): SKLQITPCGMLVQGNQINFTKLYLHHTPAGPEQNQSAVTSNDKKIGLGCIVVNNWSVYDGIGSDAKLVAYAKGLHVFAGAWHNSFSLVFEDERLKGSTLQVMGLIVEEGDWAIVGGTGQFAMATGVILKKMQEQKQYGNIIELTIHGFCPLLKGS

[5] = target: T1, OsJAC1; test: nano differential scanning fluorimetry; type: binding; conditions: 50 mM sugar, 4 mM DTT, 50 mM KPi pH 7.4, TM2 = DIR domain transition
[6] = target: T3, DIR domain of OsJAC1; test: nano differential scanning fluorimetry; near-UV CD; type: binding; conditions: 50 mM sugar, 4 mM DTT, 50 mM KPi pH 7.4; CD with 1 mM sugar
[7] = target: the molecule itself; test: dynamic light scattering; OsJAC1 1.1 mg/mL in 15 mM TRIS-HCl pH 7.4, alone or with 150 mM CaCl2, 50 mM lactose, 150 mM MgSO4 or 4 mM DTT; apparent molecular masses

dTM1 [1]: 1 K | dTM1 [2]: 1 K
Molecule: OC[C@H]1OC(O)[C@H](O)[C@@H](O)[C@@H]1O (some centres unmarked) [glucose]

stoichiometry N [3]: 2 and 4
Molecule: DIR (dirigent) domain protein of OsJAC1, His6-tagged (domain or fragment)

dTM1 [1]: 1 K | dTM1 [2]: 1 K
Molecule: OC[C@H]1OC(O)[C@@H](O)[C@@H](O)[C@@H]1O (some centres unmarked) [mannose]

dTM2 ([4]; printed as up to): ~ 3 K | dTM2 ([5]; printed as up to): ~ 2 K
Molecule: OC[C@H]1OC(O)[C@H](O)[C@@H](O)[C@H]1O (some centres unmarked) [galactose]

The remaining lines, values behind:

Molecule: OC[C@H]1O[C@@H](O[C@H]2[C@H](O)[C@@H](O)C(O)O[C@@H]2CO)[C@H](O)[C@@H](O)[C@H]1O (some centres unmarked) [lactose]
dTM2 [4]: (e.g., galactose and lactose) had a positive impact on TM2 of the DIR domain | dTM2 [5]: (e.g., galactose and lactose) had a positive impact on TM2 of the DIR domain

Molecule: OC[C@H]1O[C@@H](O[C@@H]2[C@H](O)[C@@H](O)C(O)O[C@@H]2CO)[C@H](O)[C@@H](O)[C@H]1O (some centres unmarked) [galactobiose]
dTM2 [6]: galactobiose (DIR domain) and laminaribiose (JRL domain), caused major shifts in the CD spectra

B1: monocot chimeric jacalin OsJAC1 from Oryza sativa, full-length protein, His6-tagged (natural protein)
chain: MADPSKLQITPCGMLVQGNQINFTKLYLHHTPAGPEQNQSAVTSNDKKTGLGCIVVNNWSVYDGIGSDAKLVAYAKGLHVFAGAWHNSFSLVFEDERLKGSTLQVMGLIVEEGDWAIVGGTGQFAMATGVILKKMQEQKQYGNIIELTIHGFCPLLKGSQCPVTKIGPWGSSHEGTVQDITESPKRLESITLYHGWSVDSISFTYLDHAGEKHKAGPWGGPGGDPIMIEFGSSEFLKEVSGTFGPYEGSTVITSINFITNKQTYGPFGRQEGTPFSVPAQNNSSIVGFFGRSGKYINAVGVYVQPI
notes: OsJAC1 of rice (Oryza sativa), full-length protein; numbers count on: the His6-tagged construct as printed (23 tag and linker residues before M24); no cleavage of the tag is described; also called full-length OsJAC1; chimeric lectin OsJAC1; source: E. coli BL21(DE3), purified (IMAC on Ni-NTA, SEC); not shown: His6, N-terminal, kept
binding result [7]: binds
